Laboratory results published in article PMC10848157, “Assessing NH300094, a novel dopamine and serotonin receptor modulator with cognitive enhancement property for treating schizophrenia” (Frontiers in Pharmacology, 2024).

Tests used:
D3 receptor = D3 receptor (Homo sapiens, UniProt P35462); test: D3 receptor functional assay (Nano-Glo luciferase assay system); assay type: cell-based; conditions: antagonist activity, CHO-K1/D3 cells, read-out: D3R, IC50
male ICR mice = test: MK-801-induced hyperactivity in mice; assay type: in vivo; conditions: single oral dose
Experimental: Immediately after injection with either saline or MK-801 (0.3 mg/kg, i.p.), the mice were placed into the test chambers (29 cm × 29 cm × 30 cm) for 60 min of locomotion recording using a tracking and computerized analysis system (TopScan Version 3.00, Clever Sys Inc., Leesburg, VA).

Chain of D3 receptor (P35462 whole entry): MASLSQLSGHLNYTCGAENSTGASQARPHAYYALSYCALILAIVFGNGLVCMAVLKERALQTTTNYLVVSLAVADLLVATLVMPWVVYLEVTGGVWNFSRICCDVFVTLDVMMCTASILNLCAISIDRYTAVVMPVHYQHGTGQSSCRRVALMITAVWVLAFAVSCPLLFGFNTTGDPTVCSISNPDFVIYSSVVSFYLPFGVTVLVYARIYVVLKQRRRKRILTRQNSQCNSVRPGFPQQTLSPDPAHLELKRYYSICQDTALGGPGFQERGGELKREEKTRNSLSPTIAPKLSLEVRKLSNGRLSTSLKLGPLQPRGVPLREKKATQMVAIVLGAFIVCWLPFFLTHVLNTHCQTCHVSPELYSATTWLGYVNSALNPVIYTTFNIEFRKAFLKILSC

O=C1CCc2cc(OCCCN3CCC(c4noc5cc(F)ccc45)CC3)cc3c2N1CC3 [NH300094, 8-(3-(4-(6-fluorobenzo [d]isoxazol-3-yl)piperidin-1-yl)propoxy)-1,2,5,6-tetrahydro-4H-pyrrolo [3,2,1-ij] quinolin-4-one]
IC50 (D3 receptor): 0.0315 ± 0.0231 µM
ED50 (male ICR mice; Mus musculus, MK-801 0.3 mg/kg i.p., read-out: ED50, inhibition of MK-801-induced hyperactivity): ~0.07 mg/kg
Minimum effective dose (MED), MK-801-induced hyperactivity (male ICR mice): 0.03 mg/kg
